Paper PMC6214108, “Synthesis and In Vitro Antitumor Activity of Novel Bivalent β-Carboline-3-carboxylic Acid Derivatives with DNA as a Potential Target” (International Journal of Molecular Sciences, 2018)

Experiments:
Assay type in all cases: cell-based
[1] = tested on: Hela (cervical carcinoma) cell line; assay: MTT cytotoxicity assay, Hela; details: Homo sapiens, 48 h, mean of three independent experiments, read-out: IC50 (μM) Mean ± SD, Hela
Description: (§1) All cell lines (A549, SGC-7901, Hela, SMMC-7721, and MCF-7) were purchased from the American Type Culture Collection (Manassas, VA, USA), and were cultured in Dulbecco’s modified Eagle’s medium (DMEM, HycloneLaboratories Inc., Logan, Utah, USA) supplemented with 10% fetal bovine serum (FBS, Gibco&Invitrogen, Carlsbad, CA, USA) at 37 °C and 5% CO2.
(§2) The cytotoxic activities of β-carboline-3-carboxylic acid derivatives were investigated by the MTT method, as previously described. Cells (1 × 10^4 cells per well) seeded into 96-well plates (JET, Guangzhou, China) were incubated with DMEM containing various concentrations (2.5, 5, 10, 20, 40, and 80 μM) of β-carbolines (4A, 4B, 4C, 4D, 6a-6f, 6g-6l, 6m-6r, and 6s-6x) for 48 h at 37 °C and 5% CO2. Then, 10 µL of 5 mg/mL MTT reagent dissolved in PBS (Phosphate buffered saline) was added per well, and plates were incubated at 37 °C for 4 h. The medium was carefully removed and 100 µL dimethyl sulfoxide (DMSO) was added to dissolve the formazan crystals. The absorbance was measured at 490 nm with a microplate reader (ThermoFisher Scientific Inc., Waltham, MA, USA). The β-carbolines were dissolved in DMSO as stock solutions (10 mM) at −20 °C, and diluted in the final experimental solution using DMEM before use. A549 (lung carcinoma), SGC-7901 (gastric carcinoma), Hela (cervical carcinoma), SMMC-7721 (liver carcinoma), and MCF-7 (breast carcinoma) cell lines were used for the antitumor activity screening. The IC50 values were the mean values of three independent experiments.

[2] = tested on: SGC-7901 (gastric carcinoma) cell line; assay: MTT cytotoxicity assay, SGC-7901; details: Homo sapiens, 48 h, mean of three independent experiments, read-out: IC50 (μM) Mean ± SD, SGC-7901
Description: as §1, §2

[3] = tested on: A549 (lung carcinoma) cell line; assay: MTT cytotoxicity assay, A549; details: Homo sapiens, 48 h, mean of three independent experiments, read-out: IC50 (μM) Mean ± SD, A549
Description: as §1, §2

[4] = tested on: SMMC-7721 (liver carcinoma) cell line; assay: MTT cytotoxicity assay, SMMC-7721; details: Homo sapiens, 48 h, mean of three independent experiments, read-out: IC50 (μM) Mean ± SD, SMMC-7721
Description: as §1, §2

[5] = tested on: MCF-7 (breast carcinoma) cell line; assay: MTT cytotoxicity assay, MCF-7; details: Homo sapiens, MCF7, 48 h, mean of three independent experiments, read-out: IC50 (μM) Mean ± SD, MCF-7
Description: as §1, §2

[6] = tested on: MRC5 (normal lung cell) cell line; assay: MTT cytotoxicity assay, MRC5; details: Homo sapiens, 48 h
Description: [The procedure below names another cell line; the source lists this cell line under the same test.] as §2

Structure (SMILES)	IC50 [1] [µM]	IC50 [2] [µM]	IC50 [3] [µM]	IC50 [4] [µM]	IC50 [5] [µM]	IC50 [6] [µM]
COC(=O)c1cc2c3ccccc3n(Cc3ccccc3)c2cn1 [Compound 4A]	> 80	> 80	> 80	> 80	> 80	35.6 ± 0.3
COC(=O)c1cc2c3ccccc3n(Cc3ccc(C)cc3)c2cn1 [Compound 4C]	42.6 ± 0.98	47.98 ± 0.09	28.06 ± 0.13	> 80	> 80	35.35 ± 0.3
O=c1[nH]cc(F)c(=O)[nH]1 [Compound 5-FU, 5-fluorouracil, reference compound]	> 80	> 80	15.39 ± 0.09	52.3 ± 2.06	57.7 ± 1.39	16.3 ± 0.3
O=C(OCCCOC(=O)c1cc2c3ccccc3n(Cc3ccccc3)c2cn1)c1cc2c3ccccc3n(Cc3ccccc3)c2cn1 [Compound 6a]	17.89 ± 0.03	17.76 ± 0.17	24.27 ± 0.12	25.7 ± 0.32	73.5 ± 0.88	32.57 ± 0.1
O=C(OCCCCOC(=O)c1cc2c3ccccc3n(Cc3ccccc3)c2cn1)c1cc2c3ccccc3n(Cc3ccccc3)c2cn1 [Compound 6b]	18.2 ± 0.52	15.5 ± 0.32	12.26 ± 0.04	66.53 ± 0.31	70.9 ± 2.33	64.44 ± 0.09
O=C(OCCCCCOC(=O)c1cc2c3ccccc3n(Cc3ccccc3)c2cn1)c1cc2c3ccccc3n(Cc3ccccc3)c2cn1 [Compound 6c]	18.15 ± 0.03	18.72 ± 0.07	17.65 ± 0.09	55.15 ± 0.03	76.9 ± 3.01	39.34 ± 0.11
O=C(OCCCCCCOC(=O)c1cc2c3ccccc3n(Cc3ccccc3)c2cn1)c1cc2c3ccccc3n(Cc3ccccc3)c2cn1 [Compound 6d]	32.36 ± 0.02	58.4 ± 0.72	40.03 ± 0.15	33.49 ± 0.01	75.5 ± 2.32	66.99 ± 0.1
O=C(OCCCCCCCCOC(=O)c1cc2c3ccccc3n(Cc3ccccc3)c2cn1)c1cc2c3ccccc3n(Cc3ccccc3)c2cn1 [Compound 6e]	54 ± 0.56	69.97 ± 0.13	50.3 ± 3.15	75.4 ± 0.89	> 80	> 100
Cc1ccccc1Cn1c2ccccc2c2cc(C(=O)OCCCOC(=O)c3cc4c5ccccc5n(Cc5ccccc5C)c4cn3)ncc21 [Compound 6g]	17.99 ± 0.15	29.4 ± 1.03	18.3 ± 0.28	73.5 ± 8.06	53.1 ± 2.28	32.61 ± 0.1
Cc1ccccc1Cn1c2ccccc2c2cc(C(=O)OCCCCOC(=O)c3cc4c5ccccc5n(Cc5ccccc5C)c4cn3)ncc21 [Compound 6h]	45.8 ± 0.55	17.8 ± 0.93	8.09 ± 0.25	24.7 ± 0.5	76.7 ± 5	50.78 ± 0.09
Cc1ccccc1Cn1c2ccccc2c2cc(C(=O)OCCCCCCOC(=O)c3cc4c5ccccc5n(Cc5ccccc5C)c4cn3)ncc21 [Compound 6j]	18.1 ± 1.03	26.3 ± 1.03	12.18 ± 0.06	16.68 ± 0.03	64.5 ± 3.31	41 ± 0.07
Cc1ccccc1Cn1c2ccccc2c2cc(C(=O)OCCCCCCCCOC(=O)c3cc4c5ccccc5n(Cc5ccccc5C)c4cn3)ncc21 [Compound 6k]	36.7 ± 2.02	35 ± 2.09	37.4 ± 2.08	33.9 ± 0.52	44.9 ± 2.99	65.85 ± 0.07
Cc1ccc(Cn2c3ccccc3c3cc(C(=O)OCCCOC(=O)c4cc5c6ccccc6n(Cc6ccc(C)cc6)c5cn4)ncc32)cc1 [Compound 6m]	17.95 ± 0.02	18.4 ± 0.31	19.84 ± 0.04	33.32 ± 0.03	28.43 ± 0.28	49.05 ± 0.12
Cc1ccc(Cn2c3ccccc3c3cc(C(=O)OCCCCOC(=O)c4cc5c6ccccc6n(Cc6ccc(C)cc6)c5cn4)ncc32)cc1 [Compound 6n]	28 ± 0.99	37.8 ± 1.02	13.4 ± 0.35	42.7 ± 2.18	49.1 ± 2.23	26.39 ± 0.01
Cc1ccc(Cn2c3ccccc3c3cc(C(=O)OCCCCCOC(=O)c4cc5c6ccccc6n(Cc6ccc(C)cc6)c5cn4)ncc32)cc1 [Compound 6o]	18.8 ± 0.46	17.18 ± 0.03	11.2 ± 0.61	36.62 ± 0.12	49.4 ± 1.65	31.28 ± 0.07
Cc1ccc(Cn2c3ccccc3c3cc(C(=O)OCCCCCCOC(=O)c4cc5c6ccccc6n(Cc6ccc(C)cc6)c5cn4)ncc32)cc1 [Compound 6p]	15.7 ± 0.33	17.8 ± 0.22	19.28 ± 0.02	26.8 ± 0.51	55 ± 2.22	47.6 ± 0.02
Cc1ccc(Cn2c3ccccc3c3cc(C(=O)OCCCCCCCCOC(=O)c4cc5c6ccccc6n(Cc6ccc(C)cc6)c5cn4)ncc32)cc1 [Compound 6q]	45.2 ± 1.66	35.8 ± 0.82	23.65 ± 0.05	29.8 ± 0.93	43.1 ± 2.01	42.06 ± 0.09
O=C(OCCCOC(=O)c1cc2c3ccccc3n(Cc3ccccc3F)c2cn1)c1cc2c3ccccc3n(Cc3ccccc3F)c2cn1 [Compound 6s]	13.77 ± 0.11	8.06 ± 0.08	6.12 ± 0.03	14.71 ± 0.08	25.2 ± 1.12	22.82 ± 0.02
O=C(OCCCCOC(=O)c1cc2c3ccccc3n(Cc3ccccc3F)c2cn1)c1cc2c3ccccc3n(Cc3ccccc3F)c2cn1 [Compound 6t]	15.2 ± 0.32	9.01 ± 0.19	12.4 ± 0.59	18.26 ± 0.18	25.7 ± 1.21	> 100
O=C(OCCCCCCOC(=O)c1cc2c3ccccc3n(Cc3ccccc3F)c2cn1)c1cc2c3ccccc3n(Cc3ccccc3F)c2cn1 [Compound 6v]	22.9 ± 1.36	8.6 ± 0.13	7.95 ± 0.06	24.65 ± 0.06	42.4 ± 2.08	67.75 ± 0.11
O=C(OCCCCCCCCOC(=O)c1cc2c3ccccc3n(Cc3ccccc3F)c2cn1)c1cc2c3ccccc3n(Cc3ccccc3F)c2cn1 [Compound 6w]	31.3 ± 1.88	29.98 ± 0.07	16.5 ± 0.33	44.57 ± 0.02	76.3 ± 3.36	60.78 ± 0.16
